Where two headings read alike, the source gives them in different places. Where a SMILES comes first, the peptide text is derived from it. [ ]: non-standard residue; d: D form. The star is where a group is joined. dPhe(4-Cl) = N[C@H](Cc1ccc(Cl)cc1)C(=O)O; d2Nal = N[C@H](Cc1ccc2ccccc2c1)C(=O)O; Lys(iPr) = CC(C)NCCCC[C@H](N)C(=O)O; d3Pal = N[C@H](Cc1cccnc1)C(=O)O; Nicotinoyl = O=C(c1cccnc1)*
Tests used:
mouse GnRH receptor = target: T1, mouse GnRH receptor (Mus musculus, UniProt Q01776); assay: Radioligand binding, 125I-GnRH-A, 293 cells expressing mouse GnRH receptors
T1 construct: expressed in transfected cells; host or cells: 293 cells
T1 sequence (Q01776 1-327): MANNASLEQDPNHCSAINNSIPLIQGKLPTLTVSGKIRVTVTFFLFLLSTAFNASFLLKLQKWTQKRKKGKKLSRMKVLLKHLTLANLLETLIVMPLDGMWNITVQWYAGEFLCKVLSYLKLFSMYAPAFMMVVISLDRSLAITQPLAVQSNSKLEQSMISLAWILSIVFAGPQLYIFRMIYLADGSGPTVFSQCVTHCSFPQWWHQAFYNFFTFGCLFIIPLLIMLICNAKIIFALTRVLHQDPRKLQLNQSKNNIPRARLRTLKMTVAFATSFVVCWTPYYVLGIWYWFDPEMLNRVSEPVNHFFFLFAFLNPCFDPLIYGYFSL
Summary of the method: (§1)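 Bound label captured on 0.1% polyethyleneimine-treated GF/C filters, washed three times with PBS, counted. IC50 derived; identical set-up for every species.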

human GnRH receptor = target: T2, human GnRH receptor (Homo sapiens, UniProt P30968); assay: Radioligand binding, 125I-GnRH-A displacement, membranes of HEK 293 cells with human GnRH receptor
T2 construct: expressed in transfected cells; host or cells: HEK 293 (hGnRH-R/293, from Dr. Stuart Sealfon)
T2 sequence (P30968 1-328): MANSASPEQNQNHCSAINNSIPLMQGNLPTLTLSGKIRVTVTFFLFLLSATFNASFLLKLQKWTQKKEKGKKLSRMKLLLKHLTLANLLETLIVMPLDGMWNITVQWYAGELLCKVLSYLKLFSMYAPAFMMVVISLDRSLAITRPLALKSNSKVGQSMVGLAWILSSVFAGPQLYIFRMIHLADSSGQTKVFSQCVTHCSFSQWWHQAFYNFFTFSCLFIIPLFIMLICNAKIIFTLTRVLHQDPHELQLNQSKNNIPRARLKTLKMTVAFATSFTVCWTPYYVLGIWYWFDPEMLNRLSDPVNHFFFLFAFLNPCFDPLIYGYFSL
Summary of the method: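 After filtration and PBS washes, bound radioactivity was counted by scintillation and IC50 derived. Identical conditions applied for non-human receptors.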

rat GnRH receptor = target: T3, rat GnRH receptor (Rattus norvegicus, UniProt P30969); assay: Radioligand binding, 125I-GnRH-A, rat pituitary membranes; set-up: membranes were prepared from rat pituitary; from tissue; host or cells: rat pituitary
T3 sequence (P30969 1-327): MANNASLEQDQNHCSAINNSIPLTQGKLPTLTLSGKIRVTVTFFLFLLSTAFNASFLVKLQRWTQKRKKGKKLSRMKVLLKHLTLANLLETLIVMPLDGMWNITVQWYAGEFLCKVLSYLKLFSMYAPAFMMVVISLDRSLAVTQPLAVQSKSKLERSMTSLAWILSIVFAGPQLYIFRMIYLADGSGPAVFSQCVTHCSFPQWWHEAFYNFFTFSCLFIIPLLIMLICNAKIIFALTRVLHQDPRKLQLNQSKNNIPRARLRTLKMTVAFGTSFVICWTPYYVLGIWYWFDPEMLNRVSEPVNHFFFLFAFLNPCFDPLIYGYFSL
Summary of the method: as §1

ILRA (CXCR-1) = target: T4, ILRA (CXCR-1) (Homo sapiens, UniProt P25024); assay: Selectivity: ILRA (CXCR-1) / IL8
T4 sequence (P25024 1-350): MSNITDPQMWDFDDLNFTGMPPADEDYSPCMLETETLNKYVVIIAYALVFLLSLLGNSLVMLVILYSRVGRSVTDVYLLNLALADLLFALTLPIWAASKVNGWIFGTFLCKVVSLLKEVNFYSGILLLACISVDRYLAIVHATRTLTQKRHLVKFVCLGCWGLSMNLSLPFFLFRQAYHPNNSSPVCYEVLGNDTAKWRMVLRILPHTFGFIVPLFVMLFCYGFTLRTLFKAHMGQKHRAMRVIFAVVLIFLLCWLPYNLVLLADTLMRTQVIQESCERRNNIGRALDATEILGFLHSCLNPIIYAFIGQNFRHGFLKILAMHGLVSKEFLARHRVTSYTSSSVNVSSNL

[1] = Pharmacokinetic studies / bioavailability in rats; type: in vivo, rat; conditions: for Cmax / Tmax: po
[2] = Metabolism rate, pmol/min/mg at 1 μM, human; type: in vitro ADME; conditions: 1 μM compound
[3] = means ± SE of at least three experiments performed in duplicate, read-out: Mouse IC50
[4] = means ± SE of at least three experiments performed in duplicate, read-out: Human IC50
[5] = means ± SE of at least three experiments performed in duplicate, read-out: Rat IC50
[6] = second value marked * (mostly in parentheses), asterisk not explained, read-out: hGnRH IC50, value marked *
[7] = male, rat, plasma, iv, 10 mg/kg, rat male
[8] = male, rat, plasma, 10 mg/kg, rat male, p.o. 10 mg/kg, vehicle per footnote
[9] = male, rat, plasma, 20 mg/kg, rat male, p.o. 20 mg/kg, vehicle per footnote (DMSO/cremophor/saline)
[10] = rat male, p.o. 20 mg/kg, vehicle per footnote (DMSO/cremophor/saline)
[11] = female, rat, plasma, 20 mg/kg, rat female, p.o. 20 mg/kg, 10 mg/ml solution in 10% DMSO 10% cremophor 80% saline
[12] = female, rat, plasma, rat female
[13] = male, rat, plasma, 20 mg/kg, castrated male rats, p.o. 20 mg/kg, 10 mg/ml solution in 10% DMSO 10% cremophor 80% saline
[14] = male, rat, plasma, 20 mg/kg, rat male, p.o. 20 mg/kg, 40 mg/ml in PEG400
[15] = plasma, ip, rat, i.p. 20 mg/kg, read-out: Bioavailability after i.p. dosing
[16] = rat female, p.o. 20 mg/kg, 10 mg/ml solution in 10% DMSO 10% cremophor 80% saline
[17] = female, rat, plasma, 10 mg/kg, rat female, p.o. 10 mg/kg, 5 mg/ml solution in 10% DMSO 10% cremophor 80% saline
[18] = rat female, 5 mg/ml solution in 10% DMSO 10% cremophor 80% saline

SMILES	IC50 (mouse GnRH receptor; read-out: mGnRH IC50) [nM]	IC50 (rat GnRH receptor; read-out: rGnRH IC50) [nM]	half-life [1, 7] [h]	Human pmol/min/mg 1 μM [2] [pmol/min/mg]	Fp.o. [1, 10]	IC50 (mouse GnRH receptor; [3]) [nM]	IC50 (human GnRH receptor; [4]) [nM]	IC50 (rat GnRH receptor; [5]) [nM]	IC50 (human GnRH receptor; read-out: hGnRH IC50) [nM]	IC50 (human GnRH receptor; [6]) [nM]	IC50 (ILRA (CXCR-1)) [nM]	Cmax [1, 9] [nM]	Tmax [1, 9] [h]	also measured
CC(=O)N[C@H](Cc1ccc2ccccc2c1)C(=O)N[C@H](Cc1ccc(Cl)cc1)C(=O)N[C@H](Cc1cccnc1)C(=O)N[C@@H](CO)C(=O)N[C@@H](CCCCNC(=O)c1cccnc1)C(=O)N[C@H](CCCCNC(=O)c1cccnc1)C(=O)N[C@@H](CC(C)C)C(=O)N[C@@H](CCCCNC(C)C)C(=O)N1CCC[C@H]1C(=O)N[C@H](C)C(N)=O [Antide, reference compound] (Ac-[d2Nal][dPhe(4-Cl)][d3Pal]SK(Nicotinoyl)[dK](Nicotinoyl)L[Lys(iPr)]P[dA]-NH2)						0.25 ± 0.05	0.67 ± 0.09	0.19 ± 0.04						
Cc1cc2c(cc1Cc1ccc(C(=O)NC[C@H]3CC[C@H](CNC(=N)N)CC3)o1)C(C)(C)CCC2(C)C [Compound 10]	1400	390				1400 ± 440	130 ± 24	390 ± 10	130	20	6400			
Cc1cc2c(cc1Cc1ccc(C(=O)NC[C@H]3CC[C@H](C(=O)O)CC3)o1)C(C)(C)CCC2(C)C [Compound 12]	7130	3080	0.6			7130 ± 1350	230 ± 37	3080 ± 630	230	210	> 10000			
Cc1cnc(CNC(=O)c2ccc(Cc3cc4c(cc3C)C(C)(C)CCC4(C)C)o2)cn1 [Compound 13]	120	60	1.5			120 ± 20	110 ± 20	60 ± 8	110	40	> 10000			
COc1cccc(OC)c1NC(=O)c1ccc(Cc2cc3c(cc2C)C(C)(C)CCC3(C)C)o1 [Compound 20]	20	5	0.867				8 ± 0.9		8		> 10000	200	1	Ki (ILRA (CXCR-1)): > 10000 nM
COc1cc(OC)c(NC(=O)c2ccc(Cc3cc4c(cc3C)C(C)(C)CCC4(C)C)o2)c(OC)c1 [Compound 134]	3	3	1.4	630	8% (20 mg/kg)^5				6			610	1	Fp.o. ([1]; castrated male rats, p.o. 20 mg/kg, 10 mg/ml solution in 10% DMSO 10% cremophor 80% saline): 23% (20 mg/kg)^1; Cmax [1, 11]: 2310 nM; Tmax [1, 11]: 1 h; half-life [1, 12]: 1.7 h; half-life ([1]; male, rat, plasma, castrated male rats): 1.7 h; Cmax [1, 13]: 1980 nM; Tmax [1, 13]: 1.5 h; Cmax [1, 14]: 230 nM; bioavailability [1, 15]: 38%; Fp.o. [1, 16]: 24% (20 mg/kg)^1
COc1cc(OC)c(NC(=O)c2ccc(Cc3cc4c(cc3OC)C(C)(C)CCC4(C)C)o2)c(OC)c1 [Compound 169]	5	7	1.5	589	27% (20 mg/kg)^1				12			970	1	bioavailability [1, 15]: 70%

More lines, main results first:

IC50 (mouse GnRH receptor; read-out: mGnRH IC50) [nM]	IC50 (rat GnRH receptor; read-out: rGnRH IC50) [nM]	half-life [1, 7] [h]	Human pmol/min/mg 1 μM [2] [pmol/min/mg]	Fp.o. [1, 10]	SMILES	IC50 (mouse GnRH receptor; [3]) [nM]	IC50 (human GnRH receptor; [4]) [nM]	IC50 (rat GnRH receptor; [5]) [nM]	IC50 (human GnRH receptor; read-out: hGnRH IC50) [nM]	IC50 (human GnRH receptor; [6]) [nM]	IC50 (ILRA (CXCR-1)) [nM]	Cmax [1, 9] [nM]	Tmax [1, 9] [h]	also measured
50	9	3			Cc1cc2c(cc1Cc1ccc(C(=O)NCC3CCCC(CNc4nccc(NCC5CCCO5)n4)C3)o1)C(C)(C)CCC2(C)C (stereo not shown) [Compound 11]	50 ± 10	190 ± 40	9 ± 0.3	190	80	> 10000			Cmax [1, 8]: 150 nM; Tmax [1, 8]: 1.5 to 3.5 h; concentration at 4 h ([1]; rat, plasma, iv, four hours after i.v. injection, 10 mg/kg): 100 to 200 nM
10	6	1.1	289	4% (20 mg/kg)^1	Cc1cc2c(cc1Cc1ccc(C(=O)NCc3nc4ccccc4[nH]3)o1)C(C)(C)CCC2(C)C [Compound 48]				50	40	> 10000	330	1.5	
6	6	0.967	311		Cc1cc2c(cc1Cc1ccc(C(=O)NCc3cccc(CNc4nccc(NCC5CCCO5)n4)c3)o1)C(C)(C)CCC2(C)C (stereo not shown) [Compound 70]				50					
8.6	4.7	2	191	6% (20 mg/kg)^4	Cc1cc2c(cc1Cc1ccc(C(=O)NCc3cccc(CNc4ccnc(NC[C@@H]5CCCO5)n4)c3)o1)C(C)(C)CCC2(C)C [Compound 136]							240	2	Cmax [1, 11]: 240 nM; Tmax [1, 11]: 2.5 h; half-life [1, 12]: 3.2 h; Tmax [1, 14]: 4 h; Tmax ([1]; male, rat, plasma, 20 mg/kg, rat male, p.o. 20 mg/kg, in PG): 3.5 h; bioavailability ([1]; plasma, other: portal vein infusion, rat, portal vein infusion 20 mg/kg, read-out: Portal vein infusion: bioavailable): 36%; Fp.o. [1, 16]: 8% (20 mg/kg)^1
7.3	5.7	2.2	876	0 (20 mg/kg)^9%	COc1cc(OC)c(NC(=O)c2ccc(Cc3cc4c(cc3C)C(C)(C)CCC4(C)C)o2)c(OC)c1C#N [Compound 177]				7.4					bioavailability [1, 15]: 8%
2.7	2.5	4.1	238		COc1cc(OC)c(NC(=O)c2ccc(Cc3cc4c(cc3C)CCCC4(C)C)o2)c(OC)c1 [Compound 183]				6.8					Cmax [1, 17]: 510 nM; Tmax [1, 17]: 1 h; half-life [1, 12]: 3.6 h; Cmax [1, 8]: 350 nM; Tmax [1, 8]: 1 h; Fp.o. [1, 18]: 37% (10 mg/kg)^10; Fp.o. ([1]; rat male, vehicle per footnote): 29% (10 mg/kg)^10
13	2.8		346		COc1cc(OC)c(NC(=O)c2ccc(Cc3cc(C(C)(C)C)ccc3C)o2)c(OC)c1 [Compound 200]				42					Cmax [1, 17]: 960 nM; Tmax [1, 17]: 1.5 h; half-life [1, 12]: 2 h; Fp.o. [1, 18]: 33% (10 mg/kg)^10

Source: patent US7101878B1 (Agouron Pharmaceuticals, Inc., priority 1998, dated 2006)
